Measurements from patent US20100216779A1 (GLAXOSMITHKLINE LLC, priority 2007, published 2010).

Assays:
Format in all cases: cell-based
COLO205 (colon) = test: Inhibition of cell proliferation, CellTiter-Glo, COLO205; settings: Homo sapiens, COLO 205, 72 h
Experimental: C. Inhibition of Cell Proliferation
Cell proliferation was measured by either CellTiter-Glo (measures cellular ATP level as a surrogate for total cell number) or by InCell analyzer (counts number of nuclei as a measure of cell number). For CellTiter-Glo assay, exponentially growing cell lines of different tumor origins, cultured in appropriate media containing 10% fetal bovine serum at 37° C. in a 5% CO2 incubator, were plated at low density (less than 2000 cells/well) in 96-well plates. […] Several wells were left untreated as a control. Seventy two hours post-treatment, cell numbers were determined using 50-100 ul per well of CellTiter-Glo (Promega #G7573). Plates were incubated at 37° C. for 30 minutes and the chemiluminescent signal was read on the Victor V or Envison 2100 reader. […]

[1] = biological target: T1, human IGF-1R (NIH-3T3 cells over expressing human IGF-1R) (Homo sapiens, UniProt P08069); test: IGF-1R cellular autophosphorylation (DELFIA); settings: IGF-1 stimulated
T1 construct: expressed in transfected cells; host or cells: NIH-3T3 (mouse fibroblasts)
Experimental: (§1) D. IGF-1R and IR Cellular Autophosphorylation (DELFIA)
(§2) NIH-3T3 cells over expressing human IGF-1R or IR were plated in 96-well plates (10,000 cells/well) in culture media containing 10% fetal bovine serum and incubated at 37° C. in a 5% CO2 incubator. Twenty four hours post-plating, cells were treated with different concentrations of test compounds ranging from 30 uM to 1.5 nM. Two hours after compound addition, cells were stimulated with either human IGF-1 (30 ng/mL) or insulin (3 ug/mL) for 15 minutes. Cell lysates are analyzed for phosphorylated receptors using dissociation enhanced lanthanide fluor-immuno assay (DELFIA) with anti-IGF-1R (MAB391, R&D Systems, Minneapolis, Minn.) or anti-IR[…](sc-711, Santa Cruz Biotechnology, Santa Cruz, Calif.) capture antibody and europium-labeled anti-pTyr antibody (Eu-N1 PT66, Perkin Elmer, Waltham, Mass.) for detection. The fluorescence signal for cells treated with compounds was expressed as percent relative to 100% stimulation (IGF-1 or insulin stimulated signal). […]

[2] = biological target: T2, IR (NIH-3T3 cells over expressing human IGF-1R or IR) (Homo sapiens, UniProt P06213); test: IR cellular autophosphorylation (DELFIA); settings: NIH-3T3 cells over expressing IR, insulin stimulated
T2 construct: expressed in transfected cells; host or cells: NIH-3T3 (mouse fibroblasts)
Experimental: as §1, §2

T2 sequence (P06213 28-1382): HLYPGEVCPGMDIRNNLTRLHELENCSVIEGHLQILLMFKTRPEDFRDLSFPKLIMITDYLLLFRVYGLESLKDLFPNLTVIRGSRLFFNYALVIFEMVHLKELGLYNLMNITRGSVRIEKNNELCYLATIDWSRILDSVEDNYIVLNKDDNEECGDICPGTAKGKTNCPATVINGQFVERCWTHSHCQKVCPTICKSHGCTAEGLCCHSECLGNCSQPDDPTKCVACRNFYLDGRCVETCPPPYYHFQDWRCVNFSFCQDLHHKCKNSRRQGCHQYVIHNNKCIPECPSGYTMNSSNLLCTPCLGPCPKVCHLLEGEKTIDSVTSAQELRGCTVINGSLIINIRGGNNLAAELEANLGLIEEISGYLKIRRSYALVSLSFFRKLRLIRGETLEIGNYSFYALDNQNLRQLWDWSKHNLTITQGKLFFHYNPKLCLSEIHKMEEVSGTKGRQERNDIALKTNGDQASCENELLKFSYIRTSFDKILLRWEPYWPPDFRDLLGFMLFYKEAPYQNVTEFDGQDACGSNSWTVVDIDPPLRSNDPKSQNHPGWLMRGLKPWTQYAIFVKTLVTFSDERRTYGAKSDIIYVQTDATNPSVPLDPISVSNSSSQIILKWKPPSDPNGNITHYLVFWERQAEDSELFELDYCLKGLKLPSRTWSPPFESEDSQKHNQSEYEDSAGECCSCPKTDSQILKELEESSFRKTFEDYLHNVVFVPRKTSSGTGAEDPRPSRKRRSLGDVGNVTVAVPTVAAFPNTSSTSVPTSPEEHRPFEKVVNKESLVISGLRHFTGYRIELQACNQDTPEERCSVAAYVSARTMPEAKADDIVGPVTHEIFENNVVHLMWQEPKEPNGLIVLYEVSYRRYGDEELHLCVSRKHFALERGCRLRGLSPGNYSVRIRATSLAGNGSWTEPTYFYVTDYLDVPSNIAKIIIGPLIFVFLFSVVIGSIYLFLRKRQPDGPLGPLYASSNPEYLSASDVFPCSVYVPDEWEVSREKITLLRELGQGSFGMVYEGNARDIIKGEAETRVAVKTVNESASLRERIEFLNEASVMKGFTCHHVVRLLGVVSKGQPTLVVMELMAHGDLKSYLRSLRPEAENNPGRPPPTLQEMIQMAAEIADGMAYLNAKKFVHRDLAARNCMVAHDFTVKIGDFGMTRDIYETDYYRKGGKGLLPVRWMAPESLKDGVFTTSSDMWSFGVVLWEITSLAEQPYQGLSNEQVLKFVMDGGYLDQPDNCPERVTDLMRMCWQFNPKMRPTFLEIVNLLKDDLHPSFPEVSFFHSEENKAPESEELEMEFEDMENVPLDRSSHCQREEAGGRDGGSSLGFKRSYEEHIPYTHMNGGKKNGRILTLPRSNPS
T1 sequence (P08069 31-1367): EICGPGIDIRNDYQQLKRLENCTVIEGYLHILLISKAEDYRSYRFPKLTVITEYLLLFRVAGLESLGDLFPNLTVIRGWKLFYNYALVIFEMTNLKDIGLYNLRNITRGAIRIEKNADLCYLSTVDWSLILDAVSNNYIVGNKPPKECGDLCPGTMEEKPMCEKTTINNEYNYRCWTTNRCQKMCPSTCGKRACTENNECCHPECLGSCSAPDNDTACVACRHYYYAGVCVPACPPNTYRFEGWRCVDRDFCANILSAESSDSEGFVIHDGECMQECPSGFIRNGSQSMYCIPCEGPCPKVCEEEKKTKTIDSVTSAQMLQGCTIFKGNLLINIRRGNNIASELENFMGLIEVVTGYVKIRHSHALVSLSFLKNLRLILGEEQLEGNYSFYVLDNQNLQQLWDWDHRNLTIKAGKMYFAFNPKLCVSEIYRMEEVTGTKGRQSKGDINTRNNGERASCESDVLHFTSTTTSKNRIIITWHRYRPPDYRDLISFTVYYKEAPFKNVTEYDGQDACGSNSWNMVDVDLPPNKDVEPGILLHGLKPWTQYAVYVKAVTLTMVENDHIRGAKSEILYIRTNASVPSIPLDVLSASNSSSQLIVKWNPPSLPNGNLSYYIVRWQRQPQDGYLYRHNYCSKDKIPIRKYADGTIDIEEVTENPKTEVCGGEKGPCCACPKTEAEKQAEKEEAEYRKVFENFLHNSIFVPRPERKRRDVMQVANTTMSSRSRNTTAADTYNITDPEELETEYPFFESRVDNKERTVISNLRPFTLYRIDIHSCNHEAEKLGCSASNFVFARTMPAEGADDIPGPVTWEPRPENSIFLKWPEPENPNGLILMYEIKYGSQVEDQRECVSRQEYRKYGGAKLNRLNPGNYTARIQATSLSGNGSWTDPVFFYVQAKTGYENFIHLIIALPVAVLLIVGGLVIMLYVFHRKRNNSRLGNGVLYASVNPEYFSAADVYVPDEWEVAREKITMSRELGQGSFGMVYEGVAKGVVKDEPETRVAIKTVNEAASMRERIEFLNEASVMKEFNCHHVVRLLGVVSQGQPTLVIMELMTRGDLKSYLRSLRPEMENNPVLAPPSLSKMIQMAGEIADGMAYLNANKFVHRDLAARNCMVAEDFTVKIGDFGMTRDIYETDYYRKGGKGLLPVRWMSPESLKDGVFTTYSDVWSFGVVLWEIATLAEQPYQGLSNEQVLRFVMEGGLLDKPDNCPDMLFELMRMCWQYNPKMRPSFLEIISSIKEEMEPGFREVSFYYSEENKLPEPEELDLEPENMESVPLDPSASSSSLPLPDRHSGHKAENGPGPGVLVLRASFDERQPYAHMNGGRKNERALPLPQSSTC

| IC50 (COLO205 (colon)) | IC50 [1] | IC50 [2] | Structure (SMILES) |
| --- | --- | --- | --- |
| 250 to 1000 nM | < 100 nM | 100 to 500 nM | CCCOc1cc(N2CCC(N3CCCCC3)CC2)ccc1Nc1nccc(-c2c(-c3cccc(C(=O)Nc4c(F)cccc4F)c3)nc3ccccn23)n1 [Example 33, 3-[3-(2-{[4-(1,4′-bipiperidin-1′-yl)-2-(propyloxy)phenyl]amino}-4-pyrimidinyl)imidazol[1,2-a]pyridin-2-yl]-N-(2,6-difluorophenyl)benzamide] |
| 250 to 1000 nM | < 100 nM | 100 to 500 nM | COc1cc(N2CCC(N3C[C@@H](C)O[C@@H](C)C3)CC2)ccc1Nc1nccc(-c2c(-c3cccc(C(=O)Nc4c(F)cccc4F)c3)nc3ccccn23)n1 [Example 47, N-(2,6-difluorophenyl)-3-[3-(2-{[4-{4-[(2R,6S)-2,6-dimethyl-4-monpholinyl]-1-piperidinyl}-2-(methyloxy)phenyl]amino}-4-pyrimidinyl)imidazo[1,2-a]pyridin-2-yl]benzamide] |
| < 250 nM | < 100 nM | 100 to 500 nM | O=C(Nc1c(F)cccc1F)c1cccc(-c2nc3ccccn3c2-c2ccnc(Nc3ccc(N4CCC(N5CCCCC5)CC4)cc3)n2)c1 [Example 82, 3-[3-(2-{[4-(1,4′-bipiperidin-1′-yl)phenyl]amino}-4-pyrimidinyl)imidazo[1,2-a]pyridin-2-yl]-N-(2,6-difluorophenyl)benzamide] |
| 250 to 1000 nM | < 100 nM | 100 to 500 nM | COc1cc(N2CCC[C@@H](O)C2)ccc1Nc1nccc(-c2c(-c3cccc(C(=O)Nc4c(F)cccc4F)c3)nc3ccccn23)n1 [Example 170, N-(2,6-difluorophenyl)-3-[3-(2-{[4-[(3R)-3-hydroxy-1-piperidinyl]-2-(methyloxy)phenyl]amino}-4-pyrimidinyl)imidazo[1,2-a]pyridin-2-yl]benzamide] |
| 250 to 1000 nM | < 100 nM | 100 to 500 nM | COc1cc(N2CCC(N3CCCCC3)CC2)ccc1Nc1nccc(-c2c(-c3cccc(C(=O)Nc4c(F)cccc4F)c3)nc3cc(C)ccn23)n1 [Example 18, 3-[3-(2-{[4-(1,4′-bipiperidin-1′-yl)-2-(methyloxy)phenyl]amino}-4-pyrimidinyl)-7-methylimidazo[1,2-a]pyridin-2-yl]-N-(2,6-difluorophenyl)benzamide] |
| < 250 nM | < 100 nM | < 100 nM | COc1cc(N2CCC(O)CC2)ccc1Nc1nccc(-c2c(-c3ccc(OC)c(C(=O)Nc4c(F)cccc4F)c3)nc3ccccn23)n1 [Example 122, N-(2,6-difluorophenyl)-5-[3-(2-{[4-(4-hydroxy-1-piperidinyl)-2-(methyloxy)phenyl]amino}-4-pyrimidinyl)imidazo[1,2-a]pyridin-2-yl]-2-(methyloxy)benzamide] |
| < 250 nM | < 100 nM | < 100 nM | COc1cc(N2CCC(N3CCN(C)CC3)CC2)ccc1Nc1nccc(-c2c(-c3cccc(C(=O)Nc4c(F)cccc4F)c3)nc3ccccn23)n1 [Example 79, N-(2,6-difluorophenyl)-3-{3-[2-({2-(methyloxy)-4-[4-(4-methyl-1-piperazinyl)-1-piperidinyl]phenyl}amino)-4-pyrimidinyl]imidazo[1,2-a]pyridin-2-yl}benzamide] |
| 250 to 1000 nM | < 100 nM | < 100 nM | COc1cc(N2CCC(N3CCCCC3)CC2)c(F)cc1Nc1nccc(-c2c(-c3ccc(OC)c(C(=O)Nc4c(F)cccc4F)c3)nc3ccccn23)n1 [Example 107, 5-[3-(2-{[4-(1,4′-bipiperidin-1′-yl)-5-fluoro-2-(methyloxy)phenyl]amino}-4-pyrimidinyl)imidazo[1,2-a]pyridin-2-yl]-N-(2,6-difluorophenyl)-2-(methyloxy)benzamide] |
| 250 to 1000 nM | < 100 nM | < 100 nM | COc1cc(N2CCC(N3CCCCC3)CC2)c(Cl)cc1Nc1nccc(-c2c(-c3cccc(C(=O)Nc4c(F)cccc4F)c3)nc3ccccn23)n1 [Example 104, 3-[3-(2-{[4-(1,4′-bipiperidin-1′-yl)-5-chloro-2-(methyloxy)phenyl]amino]-4-pyrimidinyl)imidazo[1,2-a]pyridin-2-yl]-N-(2,6-difluorophenyl)benzamide] |
| 250 to 1000 nM | < 100 nM | < 100 nM | COc1cc(CCN2CCN(C)CC2)ccc1Nc1nccc(-c2c(-c3ccc(OC(C)C)c(C(=O)Nc4c(F)cccc4F)c3)nc3ccccn23)n1 [Example 134, N-(2,6-difluorophenyl)-2-isopropoxy-5-{3-[2-({2-methoxy-4-[2-(4-methylpiperazin-1-yl)ethyl]phenyl}amino)pyrimidin-4-yl]imidazo[1,2-a]pyridin-2-yl}benzamide] |
| > 1000 nM | < 100 nM | < 100 nM | COc1ccn2c(-c3ccnc(Nc4ccc(N5CCC(N6CCCCC6)CC5)cc4OC)n3)c(-c3ccc(OC)c(C(=O)Nc4c(F)cccc4F)c3)nc2c1 [Example 5, 5-[3-(2-{[4-(1,4′-bipiperidin-1′-yl)-2-(methyloxy)phenyl]amino}-4-pyrimidinyl)-7-(methyloxy)imidazo[1,2-a]pyridin-2-yl]-N-(2,6-difluorophenyl)-2-(methyloxy)benzamide] |
| 250 to 1000 nM | < 100 nM | < 100 nM | COc1ccn2c(-c3ccnc(Nc4cccc(OCCN(C)C)c4)n3)c(-c3cccc(C(=O)Nc4ccc(F)cc4F)c3)nc2c1 [Example 16, N-(2,4-difluorophenyl)-3-[3-{2-[(3-{[2-(dimethylamino)ethyl]oxy}phenyl)amino]-4-pyrimidinyl}-7-(methyloxy)imidazo[1,2-a]pyridin-2-yl]benzamide] |
| 250 to 1000 nM | < 100 nM | < 100 nM | COc1cc(N2CCN(CCS(C)(=O)=O)CC2)ccc1Nc1nccc(-c2c(-c3cccc(C(=O)Nc4c(F)cccc4F)c3)nc3ccccn23)n1 [Example 136, N-(2,6-difluorophenyl)-3-(3-{2-[(2-(methyloxy)-4-{4-[2-(methylsulfonyl)ethyl]-1-piperazinyl}phenyl)amino]-4-pyrimidinyl}imidazo[1,2-a]pyridin-2-yl)benzamide] |
| 250 to 1000 nM | < 100 nM | < 100 nM | COc1cc(N2CCC(N3CCCCC3)CC2)ccc1Nc1nccc(-c2c(-c3cccc(C(=O)Nc4ccc(F)cc4F)c3)nc3ccccn23)n1 [Example 72, 3-[3-(2-{[4-(1,4′-bipiperidin-1′-yl)-2-(methyloxy)phenyl]amino}-4-pyrimidinyl)imidazo[1,2-a]pyridin-2-yl]-N-(2,4-difluorophenyl)benzamide] |
| 250 to 1000 nM | 100 to 500 nM | < 100 nM | CCOc1cc(N2CCN(CCS(C)(=O)=O)CC2)ccc1Nc1nccc(-c2c(-c3cccc(C(=O)Nc4c(F)cccc4F)c3)nc3ccccn23)n1 [Example 145, N-(2,6-difluorophenyl)-3-(3-{2-[(2-(ethyloxy)-4-{4-[2-(methylsulfonyl)ethyl]-1-piperazinyl}phenyl)amino]-4-pyrimidinyl}imidazo[1,2-a]pyridin-2-yl)benzamide] |
| 250 to 1000 nM | < 100 nM | < 100 nM | COc1cc(N2CCC(CN3CCCCC3)CC2)ccc1Nc1nccc(-c2c(-c3cccc(C(=O)Nc4c(F)cccc4F)c3)nc3ccccn23)n1 [Example 36, N-(2,6-difluorophenyl)-3-{3-[2-({2-(methyloxy)-4-[4-(1-piperidinylmethyl)-1-piperidinyl]phenyl}amino)-4-pyrimidinyl]imidazo[1,2-a]pyridin-2-yl}benzamide] |

| Structure (SMILES) | IC50 (COLO205 (colon)) | IC50 [1] | IC50 [2] |
| --- | --- | --- | --- |
| CCOc1cc(N2CCN(C3CCN(CCF)CC3)CC2)ccc1Nc1nccc(-c2c(-c3cccc(C(=O)Nc4c(F)cccc4F)c3)nc3ccccn23)n1 [Example 91, N-(2,6-difluorophenyl)-3-(3-{2-[(2-(ethyloxy)-4-{4-[1-(2-fluoroethyl)-4-piperidinyl]-1-piperazinyl}phenyl)amino]-4-pyrimidinyl}imidazo[1,2-a]pyridin-2-yl)benzamide] | 250 to 1000 nM | < 100 nM | < 100 nM |
| COc1cc(N2CCC(N3C[C@@H]4C[C@H]3CN4CCF)CC2)ccc1Nc1nccc(-c2c(-c3cccc(C(=O)Nc4c(F)cccc4F)c3)nc3ccccn23)n1 [Example 86, N-(2,6-difluorophenyl)-3-[3-(2-{[4-{4-[(1 S,4S)-5-(2-fluoroethyl)-2,5-diazabicyclo-[2.2.1]hept-2-yl]-1-piperidinyl}-2-(methyloxy)phenyl]amino}-4-pyrimidinyl)imidazo[1,2-a]pyridin-2-yl]benzamide] | 250 to 1000 nM | < 100 nM | < 100 nM |
